Reference: ChEMBL document CHEMBL3784991, “Design, synthesis and evaluation of novel HIV-1 NNRTIs with dual structural conformations targeting the entrance channel of the NNRTI binding pocket” (Eur J Med Chem, 2016)
pEC50, pIC50: −log10 of the molar value. Counter-ions that a name gives are not always drawn.

Tests used:
[1] = test system: Human immunodeficiency virus 1; test: Antiviral activity against wild type HIV1 3B infected in human MT4 cells assessed as cell viability after 4 days by MTT assay; assay type: functional, organism-based; settings: Human immunodeficiency virus 1, 3B, MT4, 96 h
[2] = test system: Human immunodeficiency virus 1; test: Antiviral activity against HIV1 RES056 harboring reverse transcriptase K103N/[…] double mutant infected in human MT4 cells assessed as cell viability after 4 days by MTT assay; assay type: functional, organism-based; settings: Human immunodeficiency virus 1, RES056, MT4, 96 h
[3] = Cytotoxicity against mock infected human MT4 cells after 4 days by MTT assay; assay type: cell-based
[4] = Selectivity index, ratio of CC50 for mock infected human MT4 cells to EC50 for HIV1 3B infected in human MT4 cells; assay type: toxicity, cell-based; settings: read-out: Ratio CC50/EC50
[5] = Selectivity index, ratio of CC50 for mock infected human MT4 cells to EC50 for HIV1 RES056 harboring reverse transcriptase K103N/[…] double mutant infected in human MT4 cells; assay type: toxicity, cell-based; settings: read-out: Ratio CC50/EC50
[6] = target: Human immunodeficiency virus type 1 reverse transcriptase (Human immunodeficiency virus 1, UniProt Q72547); test: Inhibition of wild type HIV1 Reverse transcriptase assessed as reduction of biotin deoxyuridine triphosphate incorporation into the wild type HIV1 reverse transcriptase after 1 hr by ELISA
[7] = test system: Human immunodeficiency virus 1; test: Potency index, ratio of nevirapine EC50 to compound EC50 for HIV1 3B infected in human MT4 cells; assay type: functional
[8] = test system: Human immunodeficiency virus 2; test: Antiviral activity against HIV2 ROD infected in human MT4 cells assessed as cell viability after 4 days by MTT assay; assay type: functional, organism-based; settings: Human immunodeficiency virus 2, ISOLATE ROD, MT4, 96 h
[9] = Selectivity index, ratio of CC50 for mock infected human MT4 cells to EC50 for HIV2 ROD infected in human MT4 cells; assay type: toxicity, cell-based; settings: read-out: Ratio CC50/EC50

Row | Compound | pEC50 [1] | pEC50 [2] | CC50 at 96 h [3] [µM] | selectivity ratio [4] | selectivity ratio [5] | pIC50 [6] | Ratio EC50 [7] | pEC50 [8] | selectivity ratio [9]
1 | Cc1cc(C#N)cc(C)c1Oc1cc(Nc2ccc(C#N)cc2)nc(Nc2ccc(C#N)cc2)n1 | 6.96 | 5.66 | 13 | 117 | 2 | 7.14 | 2 | < 4.89 | < 1
2 | Cc1cccc(Nc2cc(Oc3c(C)cc(C#N)cc3C)nc(Nc3ccc(C#N)cc3)n2)c1 | 6.09 | < 5.53 | 2.96 | 4 | < 1 |  |  | < 5.53 | < 1
3 | Cc1ccc(Nc2nc(Nc3cccc(C)c3)cc(Oc3c(C)cc(C#N)cc3C)n2)cc1 | < 4.76 |  | 17.3 | < 1 |  |  |  | < 4.76 | < 1
4 | Cc1cc(C)c(Oc2cc(Nc3ccc(Cl)cc3)nc(Nc3ccc(C#N)cc3)n2)c(C)c1 | ≤ 5.79 | < 5.18 | 6.68 | ≤ 4 | < 1 |  |  | < 5.18 | < 1
5 | Cc1cc(C#N)cc(C)c1Oc1nc(Nc2ccc(C#N)cc2)nc(N)c1Br [ETRAVIRINE] | 8.41 | 7.47 | 2.16 |  |  |  |  |  | 
6 | Cc1cc(C)c(Oc2cc(Nc3ccc(Cl)cc3)nc(Nc3cccc(C#N)c3)n2)c(C)c1 | < 4.90 |  | 12 | < 1 |  |  |  | < 4.90 | < 1
7 | Cc1cc(C#N)cc(C)c1Oc1cc(Nc2ccc(C#N)cc2)nc(Nc2cccc(C#N)c2)n1 | < 5.56 |  | 2.73 | < 1 |  |  |  | < 5.56 | < 1
8 | Cc1ccc(Nc2nc(Nc3cccc(C)c3)cc(Oc3c(C)cc(C)cc3C)n2)cc1 | < 4.29 |  | 51 | < 1 |  |  |  | < 4.29 | < 1
9 | CC(C)Nc1cccnc1N1CCN(C(=O)c2cc3cc(NS(C)(=O)=O)ccc3[nH]2)CC1 [DELAVIRDINE MESYLATE] | 7.57 | < 4.55 | 28.2 | 1080 | < 1 |  |  |  | 
10 | Cc1cc(C)c(Oc2cc(Nc3ccc(C#N)cc3)nc(Nc3ccc(C#N)cc3)n2)c(C)c1 | 6.11 | < 5.22 | 5.98 | 8 | < 1 |  |  | < 5.22 | < 1
11 | Cc1ccc(Nc2nc(Nc3ccc(C#N)cc3)cc(Oc3c(C)cc(C#N)cc3C)n2)cc1 | < 5.07 |  | 8.53 | < 1 |  |  |  | < 5.07 | < 1
12 | O=C1Nc2ccc(Cl)cc2[C@@](C#CC2CC2)(C(F)(F)F)O1 [EFAVIRENZ] |  | 6.65 | > 6.34 | > 1210 | > 28 |  |  |  | 
13 | Cc1cc(C#N)cc(C)c1Oc1cc(Nc2ccc(Cl)cc2)nc(Nc2cccc(C#N)c2)n1 | < 5.50 |  | 3.15 | < 1 |  |  |  | < 5.50 | < 1
14 | Cc1ccnc2c1NC(=O)c1cccnc1N2C1CC1 [NEVIRAPINE] |  | < 4.82 | > 15 |  |  |  |  |  | 
15 | Cc1cccc(Nc2cc(Oc3c(C)cc(C)cc3C)nc(Nc3ccc(C#N)cc3)n2)c1 | < 4.62 | < 4.62 | 24.1 | < 1 | < 1 |  |  | < 4.62 | < 1
16 | Cc1cccc(Nc2cc(Oc3c(C)cc(C#N)cc3C)nc(Nc3cccc(C#N)c3)n2)c1 | < 5.54 |  | 2.89 | < 1 |  |  |  | < 5.54 | < 1
17 | Cc1ccc(Nc2nc(Nc3ccc(Cl)cc3)cc(Oc3c(C)cc(C)cc3C)n2)cc1 | < 4.32 |  | 48.2 | < 1 |  |  |  | < 4.32 | < 1
18 | Cc1cc(C#N)cc(C)c1Oc1cc(Nc2ccc(Cl)cc2)nc(Nc2ccc(C#N)cc2)n1 | 6.10 | < 5.48 | 3.28 | 4 | < 1 |  |  | < 5.48 | < 1
19 | Cc1ccc(Nc2nc(Nc3ccc(Cl)cc3)cc(Oc3c(C)cc(C#N)cc3C)n2)cc1 | 4.50 | < 3.56 | > 274 | > 9 | 1 |  |  | < 3.56 | 1
20 | Nc1ccn([C@H]2CS[C@@H](CO)O2)c(=O)n1 | 5.60 |  | > 87.2 | > 34 |  |  |  | 5.00 | > 9
21 | Cc1ccc(Nc2nc(Nc3ccc(C#N)cc3)cc(Oc3c(C)cc(C)cc3C)n2)cc1 | < 4.57 |  | 27.1 | < 1 |  |  |  | < 4.57 | < 1
22 | O=c1[nH]cnc2c1ncn2[C@H]1CC[C@@H](CO)O1 [DIDANOSINE] | 4.12 |  | > 212 | > 3 |  |  |  | 4.09 | > 3
23 | Cc1cn([C@H]2C[C@H](N=[N+]=[N-])[C@@H](CO)O2)c(=O)[nH]c1=O [ZIDOVUDINE] |  | 7.77 | > 7.48 | > 1000 | > 448 |  |  | 8.09 | > 925
24 | Cc1cccc(Nc2cc(Oc3c(C)cc(C)cc3C)nc(Nc3cccc(C#N)c3)n2)c1 | < 4.59 |  | 25.8 | < 1 |  |  |  | < 4.59 | < 1
25 | Cc1cc(C)c(Oc2cc(Nc3ccc(C#N)cc3)nc(Nc3cccc(C#N)c3)n2)c(C)c1 | < 5.27 |  | 5.38 | < 1 |  |  |  | < 5.27 | < 1
